From patent US20060014734A1, “Immediate release pharmaceutical formulation” (priority 2002, published 2006)
Each block holds one compound with its values, some of them ahead of it.

Legend:
[1] = Solubility in vehicle compared to water alone; assay type: physicochemical
[2] = Storage stability of liquid formulations; assay type: physicochemical
Experimental: The pH of this solution was set to 3.8 by addition of HCl. The solubility of Compound A is at least 1000 times higher in this vehicle compared to water alone. Formulations of Compound A in this vehicle are stable for at least 3 months at <−15° C.

[3] = Nanoparticle preparation: particle size and its stability; assay type: physicochemical; conditions: for nanoparticle size: about 100 mM ethanol stock with 25% (w/w) Miglyol, diluted 1/10 in 0.2% PVP and 0.25 mM SDS in water, ultrasonication; for particle sizes after 6 hours at room temperature: nanoparticles after 1/10 dilution in 0.2% PVP and 0.25 mM SDS in water
Experimental: In order to prepare nanoparticles a stock solution of Compound A of about 100 mM in ethanol was used. Included was also 25% (w/w) Miglyol, calculated on the amount of the substance. The solutions were diluted 1/10 with the stabilizer solution, consisting of 0.2% (w/w) PVP and 0.25 mM SDS in water. The mixing, which is considered as a critical parameter during the nanoparticle preparation, was rapid and instant. The drug solution was rapidly injected into the stabilizer solution during ultrasonication. After the 1/10 dilution in the aqeous solution, nanoparticles of about 150 nm were achieved. After 6 hours at room temperature, the particle sizes were unchanged.
To prepare nanoparticles a stock solution of Compound B of about 100 mM in ethanol was used. Included was also 25% (w/w) Miglyol, calculated on the amount of the substance. The solutions were diluted 1/10 with a stabilizer solution consisting of 0.2% (w/w) PVP and 0.25 mM SDS in water. The critical mixing stage was rapid and instant:—The drug solution was rapidly injected into the stabilizer solution during ultrasonication. After 1/10 dilution in the aqeous solution, nanoparticles of about 110 nm were obtained. After 6 hours at room temperature, the particle sizes were unchanged.

pH of the formulation = assay type: physicochemical
Experimental: A formulation was prepared by dissolving Compound A in acidified PEG 400/ethanol/water 20/10/70 (w/w) % that was followed by gently stirring. The pH of this solution was 3.6. The solubility of Compound A is at least 250 times higher in this vehicle compared to water alone.
A formulation was prepared by dissolving Compound E in 9 mg/ml NaCl by gently stirring. The pH obtained in this formulation is 8-9.
A formulation was prepared by dissolving Compound F in 9 mg/ml NaCl by gently stirring. The pH obtained in this formulation is 3-4. Formulations of F in this vehicle are stable for at least 2 weeks at room temperature and below.

[4] = Solubility of esylate salt: final concentration of the solution after filtration; assay type: physicochemical
Experimental: A solution was prepared by dissolving excess of Compound A as esylate salt in 3 mL water followed by gently stirring over night. A final concentration of the solution after filtration was monitored to 14 mg/ml at a pH of 2.7.
A solution was prepared by dissolving 112 mg of Compound A as esylate salt in 3 mL sodium phosphate buffer followed by gently stirring over night. A final concentration of the solution after filtration was monitored to 33 mg/ml at a pH of 2.7.
A solution was prepared by dissolving 20 mg of Compound A as esylate salt in 3 mL sodium phosphate buffer followed by gently stirring over night. A final concentration of the solution after filtration was monitored to 1.6 mg/ml at a pH of 6.5.

[5] = Plasma concentration 1 hour after oral or subcutaneous administration of solution to rats
Experimental: A formulation was prepared by dissolving Compound C in saline/ethanol/solutol 90/5/5 (w/w) % followed by gently stirring.

SMILES: CO/N=C(\N)c1ccc(CNC(=O)[C@@H]2CCN2C(=O)[C@H](O)c2cc(Cl)cc(OC(F)F)c2)cc1 [Compound A, Ph(3-Cl)(5-OCHF2)—(R)CH(OH)C(O)—(S)Aze-Pab(OMe)]
solubility in this vehicle compared to water alone ([1]; Example 4: PEG 400/ethanol/water 50/5/45 (w/w) %): at least 1000 times
solubility in this vehicle compared to water alone ([1]; Example 5: PEG 400/ethanol/water 20/10/70 (w/w) %): at least 100 times
solubility in this vehicle compared to water alone ([1]; Example 6: acidified PEG 400/ethanol/water 20/10/70, water with 50 μmol/mL tartaric acid, pH 3.6): at least 250 times
solubility in this vehicle compared to water alone ([1]; Example 7: PEG 400/ethanol/water 30/5/65 (w/w) %): at least 200 times
solubility in this vehicle compared to water alone ([1]; Example 8: acidified PEG 400/ethanol/water 30/5/65, tartaric acid, HCl to pH 3.6): at least 400 times
solubility in this vehicle compared to water alone ([1]; Example 9: PEG 400/ethanol/water 40/5/55 (w/w) %): at least 600 times
solubility in this vehicle compared to water alone ([1]; Example 10: acidified PEG 400/ethanol/water 40/5/55, tartaric acid, HCl to pH 3.8): at least 1000 times
solubility in this vehicle compared to water alone ([1]; Example 11: Hydroxypropyl-β-cyclodextrin/water 40/60 (w/w) %, pH set to 4.7 by HCl): at least 700 times
solubility in this vehicle compared to water alone ([1]; Example 12: Hydroxypropyl-β-cyclodextrin/water 28/72 (w/w) %): at least 400 times
solubility in this vehicle compared to water alone ([1]; Example 13: PEG 400/ethanol/solutol/water 50/5/5/40 (w/w) %): at least 80 times
solubility in this vehicle compared to water alone ([1]; Example 14: PEG 400/water 40/60 (w/w) %): at least 200 times
solubility in this vehicle compared to water alone ([1]; Example 15: PEG 400/water 35/65 (w/w) %, water with 50 μmol/mL tartaric acid): at least 250 times
solubility in this vehicle compared to water alone ([1]; Example 16: PEG 400/water 50/50 (w/w) %): at least 300 times
solubility in this vehicle compared to water alone ([1]; Example 17: PEG 400/water 67/33 (w/w) %): at least 400 times
solubility in this vehicle compared to water alone ([1]; Example 18: PEG 400/ethanol/water 45/1/54 (w/w) %): at least 450 times
solubility in this vehicle compared to water alone ([1]; Example 19: acidified PEG 400/ethanol/water 45/1/54, tartaric acid, HCl to pH 4.2): at least 800 times
solubility in this vehicle compared to water alone ([1]; Example 20: PEG 400/ethanol/water 45/2/53 (w/w) %): at least 500 times
solubility in this vehicle compared to water alone ([1]; Example 21: acidified PEG 400/ethanol/water 45/2/53, tartaric acid, HCl to pH 4.3): at least 800 times
solubility in this vehicle compared to water alone ([1]; Example 22: DMA/water 50/50 (w/w) %): at least 230 times
solubility in this vehicle compared to water alone ([1]; Example 23: DMA/water 25/75 (w/w) %): at least 150 times
solubility in this vehicle compared to water alone ([1]; Example 24: water with double equimolar HCl, pH adjusted to 3.6): at least 20 times
solubility in this vehicle compared to water alone ([1]; Example 25: water, HCl to pH 1, then NaOH to pH 3.0): at least 40 times
solubility in this vehicle compared to water alone ([1]; Example 26: DMA/miglyol (miglyol 0.25 g/g Compound A)): at least 4000 times
solubility in this vehicle compared to water alone ([1]; Example 27: Ethanol/Miglyol (miglyol 0.25 g/g Compound A)): at least 4000 times
solubility in this vehicle compared to water alone ([1]; Example 57: PEG 400/ethanol/water 25/10/65 (w/w) %): at least 100 times
solubility in this vehicle compared to water alone ([1]; Example 58: PEG 400/ethanol/water 50/10/40 (w/w) %): at least 2000 times
solubility in this vehicle compared to water alone ([1]; Example 59: PEG 400/ethanol/water 40/10/50 (w/w) %): at least 1500 times
solubility in this vehicle compared to water alone ([1]; Example 60: ethanol, citric acid and water, pH set to 3.2): at least 100 times
time the formulation is stable ([2]; Example 10: acidified PEG 400/ethanol/water 40/5/55, pH 3.8, at <−15° C.): at least 3 months
time the substance is stable in this formulation ([2]; Example 28: 130 μmol/mL in ethanol): more than 1 week
time the formulation is stable ([2]; Example 57: PEG 400/ethanol/water 25/10/65, in a freezer): at least 2 months
time the formulation is stable ([2]; Example 60: ethanol, citric acid and water, pH 3.2, in a freezer): at least 1 month
time the formulation is stable ([2]; Example 61: citric acid in physiological saline, pH 3.6, in a freezer): at least 3 months
time the formulation is stable ([2]; Example 62: PEG 400/ethanol/water 40/5/55 containing citric acid, pH 3.6, in a freezer): at least 1 month
time the formulation is stable ([2]; Example 67: citric acid in physiological saline, pH 3.6, in a freezer): at least 3 months
nanoparticle size [3]: about 150 nm
particle sizes after 6 hours at room temperature [3]: unchanged
pH of this solution (pH of the formulation; Example 6: 51 μmol/mL in PEG 400/ethanol/water 20/10/70, water with 50 μmol/mL tartaric acid): 3.6

SMILES: CO/N=C(\N)c1cc(F)c(CNC(=O)[C@@H]2CCN2C(=O)[C@H](O)c2cc(Cl)cc(OC(F)F)c2)c(F)c1 [Compound B, Ph(3-Cl)(5-OCHF2)—(R)CH(OH)C(O)—(S)Aze-Pab(2,6-diF)(OMe)]
time the formulation is stable ([2]; Example 69: 0.5 mg/mL in PEG 400/ethanol/water 50/5/45, at <−15° C.): at least 1 month
nanoparticle size [3]: about 110 nm
particle sizes after 6 hours at room temperature [3]: unchanged

SMILES: CCS(=O)(=O)O.CO/N=C(\N)c1ccc(CNC(=O)C2CCN2C(=O)C(O)c2cc(Cl)cc(OC(F)F)c2)cc1 (centres unmarked) [Compound A as esylate salt]
solubility thermodynamic ([4]; pH 2.7, aqueous buffer, thermodynamic from solid, 112 mg in 3 mL sodium phosphate buffer pH 3.1 I = 0.1, stirred over night, at a pH of 2.7): 33 mg/mL
solubility thermodynamic ([4]; pH 2.7, thermodynamic from solid, excess salt in 3 mL water, stirred over night, at a pH of 2.7): 14 mg/mL
solubility thermodynamic ([4]; pH 6.5, aqueous buffer, thermodynamic from solid, 20 mg in 3 mL sodium phosphate buffer pH 6.9 I = 0.1, stirred over night, at a pH of 6.5): 1.6 mg/mL

Results, then the compound that gave them:

time the formulation is stable ([2]; Example 75: 9 mg/ml NaCl, at room temperature and below): at least 2 weeks
pH obtained in this formulation (pH of the formulation; Example 75: dissolved in 9 mg/ml NaCl): 3-4
plasma concentration after 1 hour ([5]; oral, dosed: Compound C 4 μmol/mL in saline/ethanol/solutol 90/5/5): 500 nM
plasma concentration after 1 hour ([5]; subcutaneous, dosed: Compound C 4 μmol/mL in saline/ethanol/solutol 90/5/5): 500 nM
plasma concentration after 1 hour ([5]; subcutaneous, dosed: Compound F trifluoroacetate salt 4 μmol/mL in saline/ethanol): 920 nM
SMILES: N=C(N)c1ccc(CNC(=O)[C@@H]2CCN2C(=O)[C@H](O)c2cc(Cl)cc(OCCF)c2)cc1 [Compound F, Ph(3-Cl)(5-OCH2CH2F)—(R)CH(OH)C(O)—(S)Aze-Pab]

time the formulation is stable ([2]; Example 73: 0.5 mg/mL in PEG 400/ethanol/water 50/5/45, at room temperature and below): at least 1 month
time the formulation is stable ([2]; Example 74: Hydroxypropyl-β-cyclodextrin/water 20/80, at <8° C.): at least 2 weeks
SMILES: CO/N=C(\N)c1ccc(CNC(=O)[C@@H]2CCN2C(=O)[C@H](O)c2cc(Cl)cc(OCCF)c2)cc1 [Compound C, Ph(3-Cl)(5-OCH2CH2F)—(R)CH(OH)C(O)—(S)Aze-Pab(OMe)]

pH obtained in this formulation (pH of the formulation; Example 72: dissolved in 9 mg/ml NaCl): 8-9
plasma concentration after 1 hour ([5]; oral, dosed: Compound B 4 μmol/mL in saline/ethanol/solutol 90/5/5): 650 nM
plasma concentration after 1 hour ([5]; subcutaneous, dosed: Compound B 4 μmol/mL in saline/ethanol/solutol 90/5/5): 300 nM
plasma concentration after 1 hour ([5]; subcutaneous, dosed: Compound E acetate salt 4 μmol/mL in saline/ethanol): 750 nM
SMILES: N=C(N)c1cc(F)c(CNC(=O)[C@@H]2CCN2C(=O)[C@H](O)c2cc(Cl)cc(OC(F)F)c2)c(F)c1 [Compound E, Ph(3-Cl)(5-OCHF2)—(R)CH(OH)C(O)—(S)Aze-Pab(2,6-diF)]

time the formulation is stable ([2]; Example 64: acidified PEG 400/ethanol/water 40/5/55, pH 3.6, at <−15° C.): at least 2 months
plasma concentration after 1 hour ([5]; oral, dosed: Compound A 4 μmol/mL in saline/ethanol/solutol 90/5/5): 560 nM
plasma concentration after 1 hour ([5]; subcutaneous, dosed: Compound A 4 μmol/mL in saline/ethanol/solutol 90/5/5): 240 nM
plasma concentration after 1 hour ([5]; subcutaneous, dosed: Compound D trifluoroacetate salt 4 μmol/mL in saline/ethanol): 550 nM
SMILES: N=C(N)c1ccc(CNC(=O)[C@@H]2CCN2C(=O)[C@H](O)c2cc(Cl)cc(OC(F)F)c2)cc1 [Compound D, Ph(3-Cl)(5-OCHF2)—(R)CH(OH)C(O)—(S)Aze-Pab]
